{"source": "a melting point compilation (Tetko et al.; mined from patent text by program, amines drawn as free bases though some values may be those of a salt)", "data": [{"units": {"melting point": "°C"}, "values": [{"molecule": "CC(C)CCC(=O)OC1c2ccccc2C(=O)N1c1ccc2ccc(Cl)nc2n1", "note": "(stereo not given)", "melting point": 147}, {"molecule": "COc1ccc2nc(-c3ccccc3)cc(CCNC(=O)C(F)(F)F)c2c1", "melting point": "122 to 124"}, {"molecule": "N#CCCCCCc1nc(-c2ccc(Cl)cc2)c(-c2ccc(Cl)cc2)o1", "melting point": 108}, {"molecule": "CCOC(=O)CCCOc1ccccc1O", "melting point": "37.2 to 38.4"}, {"molecule": "Cc1oc(-c2ccccc2)nc1CC=Cc1ccc(CCC2OC(=O)NC2=O)cc1", "note": "(stereo not given)", "melting point": "175 to 176"}, {"molecule": "CCCCCCCCCCCCCC(c1ccccc1)S(=O)(=O)NC(=O)Nc1c(C(C)C)cccc1C(C)C", "note": "(stereo not given)", "melting point": "97 to 102"}, {"molecule": "O=C1c2ccc3cccnc3c2N=CC1S(=O)(=O)CC(F)(F)F", "note": "(stereo not given)", "melting point": "272 to 274"}, {"molecule": "COc1c(F)cc(F)c(C(N)=O)c1F", "melting point": 102}, {"molecule": "CCCCNC1CC(C)(C)N(CCO)C(C)(C)C1", "melting point": "106 to 111"}, {"molecule": "CCC(=NNc1ccc(-c2ccc(=O)n(C)n2)cc1)c1ccc(O)cc1O", "melting point": "225 to 233"}, {"molecule": "COc1cc(OC)c2c(=O)oc(=O)[nH]c2c1", "melting point": "287 to 293"}, {"molecule": "CC(=O)NC1CCc2c(C)cc(C)c(O)c21", "note": "(stereo not given)", "melting point": "131 to 132"}, {"molecule": "CC(=O)NCc1ccc2c(c1)[C@@H](N1CCCC1=O)[C@H](O)C(C)(C)O2", "note": "(relative stereo)", "melting point": "206 to 208"}, {"molecule": "CCCc1nc2c(N)nc3cc(OCc4ccccc4C)ccc3c2n1CC(C)C", "melting point": 228}, {"molecule": "O=[N+]([O-])c1ccc2c(c1)C(c1ccccc1F)=NCC(OP(=O)(N1CCOCC1)N1CCOCC1)=N2", "melting point": "169 to 172"}, {"molecule": "OC1CSC(Oc2cccc(-c3cccnc3F)c2)C(O)C1O", "note": "(stereo not given)", "melting point": 160}, {"molecule": "O=C1NC(Cc2ccccc2)C(=O)N/C1=C\\c1ccc(O)cn1", "note": "(stereo not given)", "melting point": "251 to 252"}, {"molecule": "CS(=O)(=O)C(=C1CN(C(c2ccccc2)c2ccccc2)C1)c1ccccc1", "melting point": 210}, {"molecule": "COc1cc(C(C)(C)CC(C)(C)C)c(OC)cc1C(=O)CCC(=O)O", "melting point": 142}, {"molecule": "COc1cccc2c(=O)c(OCC(=O)O)coc12", "melting point": "215 to 217"}, {"molecule": "CCC(C(=O)N(C)C)n1nc(-c2ccccc2)c(C)c1C", "note": "(stereo not given)", "melting point": "119 to 121"}, {"molecule": "COc1cccc(N(C)C(=O)c2cnc(-c3cccc(C)c3)s2)c1", "melting point": 88}, {"molecule": "Cc1cccc(C)c1NCCCN1C(=O)c2ccccc2C1=O", "melting point": "97 to 98"}, {"molecule": "Cc1c(C)c2c(c(C)c1O)C(O)CC(C)(COc1ccc(CC3SC(=O)NC3=O)cc1)O2", "note": "(stereo not given)", "melting point": "102 to 118"}, {"molecule": "CN(Cc1ccccc1)C1(C#N)CCN(Cc2ccccc2)CC1", "melting point": "67 to 68"}, {"molecule": "Cn1cc(C(O)(c2ccc3c(cnn3C(=O)c3ccccc3)c2)C(F)(F)F)c2ccccc21", "note": "(stereo not given)", "melting point": "102 to 103"}, {"molecule": "Cc1sc2ncc(C(O)CCCc3ccccc3)n2c1C", "note": "(stereo not given)", "melting point": "167 to 169"}, {"molecule": "CCOC(=O)CCc1ccc(NC(C)=O)cc1", "melting point": "52 to 53"}, {"molecule": "N#Cc1ccc(N)c(F)c1F", "melting point": "108 to 110"}, {"molecule": "CCN(CC)C(=O)CCc1nc(-c2ccc([N+](=O)[O-])cc2)nc2ccccc12", "melting point": 168}, {"molecule": "Cc1cnc(NC2CCC(CCN3CCN(c4ccccc4)CC3)CC2)nc1", "note": "(stereo not given)", "melting point": 190}, {"molecule": "CN(N)C(=S)Nc1ccc([N+](=O)[O-])cc1Cl", "melting point": "164 to 167"}, {"molecule": "CC(C)(C)OC(=O)N1C[C@@H]([C@H]2COC(C)(C)O2)CC1=O", "melting point": "106 to 108"}, {"molecule": "COC(=O)c1ccccc1Oc1nc(Oc2ccccc2C(=O)OC)nc(Oc2ccccc2C(=O)OC)n1", "melting point": "58 to 63"}, {"molecule": "Oc1cccc(OCCn2ccnc2)c1", "melting point": "125 to 127"}, {"molecule": "CNC1=Nc2ccc(C3=NNC(=O)CC3)cc2C1(C)C", "melting point": "320 to 324"}, {"molecule": "Cc1csc(C(=O)C2C(=O)N(C(N)=O)c3cc(F)cnc32)c1", "note": "(stereo not given)", "melting point": "> 250"}, {"molecule": "CC1(C)SC2C(NC(c3ccccc3)(c3ccccc3)c3ccccc3)C(=O)N2C1C#N", "note": "(stereo not given)", "melting point": "116 to 119"}, {"molecule": "CCOC(=O)c1cc2c(C(F)(F)F)cc(C=O)cc2n1C", "melting point": "140 to 141"}, {"molecule": "CCCc1cc(O)nc(SCc2ccccc2)n1", "melting point": "122 to 126"}, {"molecule": "O=C1C(=O)c2c(nc3ccccn23)-c2cc([N+](=O)[O-])ccc21", "melting point": "> 300"}, {"molecule": "CCCc1c(OCCCC#CC(=O)O)ccc(C(C)=O)c1O", "melting point": "115 to 116"}, {"molecule": "CCOC(=O)c1cc2cc(OCOC)ccc2s1", "melting point": "74 to 75"}, {"molecule": "CC1COCc2nc3c(N)nc4cc(O)ccc4c3n21", "note": "(stereo not given)", "melting point": "> 250"}, {"molecule": "C=CCNc1nc(SC)nc2cc(OC)c(OC)cc12", "melting point": "122 to 124"}, {"molecule": "C#CCn1c(-c2cc(Cl)nc(Cl)c2)nc(OS(=O)(=O)C(F)(F)F)c(CC)c1=O", "melting point": "112 to 114"}, {"molecule": "COCN(COC)c1ccn2nc(-c3ccccc3)c(-c3ccc(=O)n(C(C)C)n3)c2c1", "melting point": "148 to 150"}, {"molecule": "CCN(CC)CC(=O)OC1CC2(C)C(C(C)=O)CCC2C2CCC3CC(O)C=CC3(C)C12", "note": "(stereo not given)", "melting point": "134 to 138"}, {"molecule": "CCOC(=O)c1nccc2c(C)c3c(cc12)c1cc(OC)ccc1n3CC", "melting point": 149}, {"molecule": "NC(=O)c1ccc(CCCNCC(O)COc2ccccc2)s1", "note": "(racemic)", "melting point": "129 to 130"}]}]}
